Marks after values point to notes of the source that are not given here. Where a SMILES comes first, the peptide text is derived from it. Bridges are numbered along the chain shown (N, C = ends). Where no end group is shown, it is not given here. [ ]: non-standard residue; d: D form. Orn = NCCC[C@H](N)C(=O)O
Experiments:
vas deferens = conditions: read-out: EC50 value; half maximal inhibition of electrically-induced contraction, mouse vas deferens
Method: (§1) In short: vasa deferentia were isolated from male mice weighing 20-30 g (Mellegaard breeding, DK) and suspended through two electrodes in 10 ml baths at resting tension of 1 g. […] The tissues were stimulated electrically (70 V, 1 ms duration; 0.1 Hz) and contractions were recorded isometrically on a chart recorder. After equilibration of the tissue for at least 20 min, drugs were added in the bath and the maximum effects were measured.
Prior to addition of the plasma sample, a standard dose-response curve was generated in each preparation in order to express the inhibitory activity as concentration of each test substance. Thus, the calculated concentration is a reflection of inhibitory activity in the vas deferens bioassay preparation.
Where initial=initial […] contraction force prior to addition of test substance; conc=concentration of test substance; EC50=concentration of test substance that […] produced half maximal inhibition of electrically-induced contraction; background=contraction force during maximal relaxation.

[1] = Bioavailability in mice: functional activity in serum after p.o. or i.v. dosing (vas deferens bioassay); conditions: 30 min
Method: Blood samples were centrifuged immediately (3000 g, 4° C.) and serum was isolated and used for activity determination.
as §1

carboxypeptidase A = target: T1, carboxypeptidase A (Bos taurus, UniProt P00730); test: Hydrolysis kinetics in carboxypeptidase A solution; assay type: in vitro ADME, bovine; conditions: 50 mM phosphate buffer pH 7.4, 37° C., carboxypeptidase A 1 U/ml
T1 construct: purchased Sigma, UK type I (catalogue number not given); host or cells: bovine pancreas
T1 sequence (P00730 111-419): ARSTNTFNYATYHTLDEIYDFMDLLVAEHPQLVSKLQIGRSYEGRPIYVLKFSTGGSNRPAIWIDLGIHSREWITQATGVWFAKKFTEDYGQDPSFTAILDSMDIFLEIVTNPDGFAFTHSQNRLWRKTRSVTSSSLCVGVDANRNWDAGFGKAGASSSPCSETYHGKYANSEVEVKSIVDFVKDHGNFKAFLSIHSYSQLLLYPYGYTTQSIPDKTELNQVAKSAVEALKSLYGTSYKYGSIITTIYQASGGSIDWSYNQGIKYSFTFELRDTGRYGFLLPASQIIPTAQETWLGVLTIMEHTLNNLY
Method: (§2) Carboxypeptidase A (EC 3.4.17.1) type I from bovine pancreas, leucine aminopeptidase (EC 3.4.11.1) type III-CP from porcine kidney, α-chymotrypsin (EC […]) from bovine pancreas, and pepsin A (EC 3.4.23.1) from porcine stomach mucosa […] were obtained from Sigma, UK.
(§3) Gradient HPLC analysis of samples from in vitro kinetic measurements performed as described below was performed using a Hewlett Packard HP 1100 HPLC system consisting of a HP 1100 Binary Pump, a HPI 100 Autosampler, a HPI 100 Column Thermostat and a HP 1100 Variable Wavelength Detector. A Merck LiChroCART column (125×4 mm I.D.) and a LiChroCART precolumn (4×4 mm I.D.) packed with Lichrospher RP-18 (5 .μum particles) was used. The column was kept at 25° C. or 75° C. and the column effluent was measured by UV detection at 215 run. Separation of the peptide conjugates or the native peptides from degradation products and constituents of the reaction solutions was accomplished using gradient elution of the column with mixtures of mobile phase A (0.1 vol % TFA in water) and mobile phase B (0.085 vol % TFA in acetonitrile) at a flow rate of 1 ml/min.
(§4) The degradation of the peptide conjugate and the corresponding native peptide were studied at 37° C. in a 50 mM phosphate buffer solution at pH 7.4 containing leucine arninopeptidase (25 U/ml) or carboxypeptidase A (1 or 25 U/ml). Experiments were initiated by addition of an aliquot (100 μl) of a stock solution (1 mg/ml) of the peptide conjugate or the native peptide to 900 μl preheated enzyme solution giving a final concentration of ˜0.1 mg/ml (10^−5-10^−4M) of the peptide conjugate or the native peptide. The peptide/enzyme solution was kept at 37° C. using a SHT200D block heater from Stuart Scientific. At appropriate time intervals, samples of 100 μl were withdrawn from the peptide/enzyme solution, mixed thoroughly with 20 μl 25% TFA in acetonitrile in order to stop the enzymatic degradation process and analysed by HPLC as described above. Half-lives (t1/2) for the peptide conjugate and the corresponding native peptide in the enzyme solutions were calculated from plots of the natural logarithm to the concentration of the residual peptide (HPLC peak heights) against time using the formula t/2=1/kobs×ln(2), where kobs is the apparent first-order rate constant for the observed degradation.

leucine aminopeptidase = target: T2, leucine aminopeptidase (Sus scrofa, UniProt P28839); test: Hydrolysis kinetics in leucine aminopeptidase solution; assay type: in vitro ADME, porcine; conditions: 50 mM phosphate buffer pH 7.4, 37° C., leucine aminopeptidase 25 U/ml; for half-life: pig
T2 construct: purchased Sigma, UK type III-CP (catalogue number not given); host or cells: porcine kidney
T2 sequence (P28839 1-519): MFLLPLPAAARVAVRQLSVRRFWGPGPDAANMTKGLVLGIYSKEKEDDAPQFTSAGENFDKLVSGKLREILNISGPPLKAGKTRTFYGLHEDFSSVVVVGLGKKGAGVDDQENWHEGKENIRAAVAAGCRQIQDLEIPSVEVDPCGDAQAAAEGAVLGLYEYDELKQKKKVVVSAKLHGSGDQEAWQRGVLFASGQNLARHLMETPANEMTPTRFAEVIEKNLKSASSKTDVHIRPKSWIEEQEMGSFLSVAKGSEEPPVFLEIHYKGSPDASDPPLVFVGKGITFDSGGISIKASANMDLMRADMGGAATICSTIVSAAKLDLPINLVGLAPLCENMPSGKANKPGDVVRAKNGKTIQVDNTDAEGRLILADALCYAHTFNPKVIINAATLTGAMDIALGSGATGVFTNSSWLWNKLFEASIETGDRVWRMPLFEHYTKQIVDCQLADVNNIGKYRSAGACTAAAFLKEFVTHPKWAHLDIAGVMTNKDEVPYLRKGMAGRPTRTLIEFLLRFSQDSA
Method: as §2, §3, §4

[2] = Hematological responses after p.o. EMP-1 / EMP-1-K6 in mice; assay type: in vivo; conditions: male mice, 956 nmol p.o., 4 days after administration
Method: To examine the biological efficacy of peroral (p.o.) treatment with EMP-1 (SEQ ID NO: 117) and EMP-1-K6 (SEQ ID NO: 93), the hematological responses of an equimolar p.o. dose (956 nmol) of EMP-1 (2 mg) and EMP-1-K6 (SEQ ID NO: 93) (2.56 mg) were examined in male mice (n=8/group). To examine the time course of the hematological responses, a 10 μl venous blood sample was collected from the retroorbital plexus on days 0, 2, and 4. Body weight (BW) and the plasma concentration of hemoglobin (P-Hgb), the hematocrit value (Hct), the red blood cell count (RBC), and the mean cell hemoglobin concentration (MCHC) were determined before (Day 0), and 2 and 4 days after administration of EMP-1 (SEQ ID NO: 117) or EMP-1- K6 (SEQ ID NO: 93).

osteoblast = test: Osteoblast retraction assay; assay type: cell-based, mice; conditions: 10 nM, 1 h, mouse calvaria osteoblasts
Method: Retraction assays were performed with osteoblast prepared from calvaria of 1-day old mice according to published protocols (Miller et al., 1976, Science 192:1340-1343). In brief, osteoblasts were seeded in serum-free minimal essential medium-α (αMEM) at a density of 3000 cells per cm^2 into 96-well tissue culture plates coated with 50 μg/ml of type I collagen in phosphate-buffered saline containing 0.1% bovine serum albumin (PBS). One day after plating, PTH compounds were added to a final concentration of 10 nM and incubation was carried out for 1 h. Cells were then fixed and stained with toluidine blue, and the number of retracted cells was counted by visual inspection.

Molecule: H-YGGFLKKEEEK-OH [Leu-Enkephalin-(Lys2-Glu3-Lys)-OH, H-Tyr-Gly-Gly-Phe-Leu-Lys-Lys-Glu-Glu-Glu-Lys-OH]
- EC50 (vas deferens): 680 nM

Molecule: CC(C)C[C@H](NC(=O)[C@H](Cc1ccccc1)NC(=O)CNC(=O)CNC(=O)[C@@H](N)Cc1ccc(O)cc1)C(=O)O [Leu-Enkephalin-OH, H-Tyr-Gly-Gly-Phe-Leu-OH, reference compound]
- Functional activity in serum ([1]; 50 mg/kg i.v.): no activity was detected
- Functional activity in serum ([1]; 50 mg/kg p.o.): no activity was detected
- pseudo first-order rate constant for the degradation (carboxypeptidase A): 0.98 min⁻¹
- half-life (carboxypeptidase A; cattle, carboxypeptidase A solution (1 U/ml) in phosphate buffer): 0.7 min
- pseudo first-order rate constant for the degradation (leucine aminopeptidase): 0.68 min⁻¹
- half-life (leucine aminopeptidase): 1 min
- EC50 (vas deferens): 65 nM

Molecule: CC(C)C[C@H](NC(=O)[C@H](Cc1ccccc1)NC(=O)CNC(=O)CNC(=O)[C@@H](N)Cc1ccc(O)cc1)C(=O)N[C@@H](CCCN)C(=O)N[C@@H](CCCN)C(=O)N[C@@H](CCCN)C(=O)N[C@@H](CCCN)C(=O)N[C@@H](CCCN)C(=O)N[C@@H](CCCN)C(=O)O [Leu-Enkephalin-(Orn)6-OH, H-Tyr-Gly-Gly-Phe-Leu-(Orn)6-OH] (H-YGGFL[Orn][Orn][Orn][Orn][Orn][Orn]-OH)
- half-life (carboxypeptidase A): > 6000 min
- pseudo first-order rate constant for the degradation (leucine aminopeptidase): 0.0064 min⁻¹
- half-life (leucine aminopeptidase): 108 min
- EC50 (vas deferens): > 20000 nM

Molecule: CC(C)C[C@@H]1NC(=O)[C@@H]2CCCN2C(=O)CNC(=O)[C@H](Cc2ccccc2)NC(=O)[C@H](Cc2c[nH]cn2)NC(=O)[C@@H](NC(=O)[C@H](CO)NC(=O)[C@H](Cc2ccc(O)cc2)NC(=O)[C@@H](NC(=O)CNC(=O)CN)[C@@H](C)O)CSSC[C@@H](C(=O)N[C@@H](CCCCN)C(=O)N2CCC[C@H]2C(=O)N[C@@H](CCC(N)=O)C(=O)NCC(=O)NCC(=O)N[C@@H](CCCCN)C(=O)N[C@@H](CCCCN)C(=O)N[C@@H](CCCCN)C(=O)N[C@@H](CCCCN)C(=O)N[C@@H](CCCCN)C(=O)N[C@@H](CCCCN)C(=O)O)NC(=O)[C@H](C(C)C)NC(=O)[C@H](Cc2c[nH]c3ccccc23)NC(=O)[C@H]([C@@H](C)O)NC1=O [EMP-1-(Lys)6-OH, H-Gly-Gly-Thr-Tyr-Ser-Cys-His-Phe-Gly-Pro-Leu-Thr-Trp -Val-Cys-Lys-Pro-Gln-Gly-Gly-LM-OH] (H-GGTYSCHFGPLTWVCKPQGGKKKKKK-OH; disulfide 6-15)
- Change in BW [2]: 3.4 ± 0.3 g
- Change in Hematocrit [2]: 4.5 ± 0.9 %
- Change in MCHC [2]: 0.2 ± 1.5 mM
- Change in P-hgb [2]: +2.4 ± 0.3 mM
- Change in RBC [2]: 1.0 ± 0.1* 10^12 cells/1
- Relative change in BW [2]: (15 ± 2%)
- Relative change in Hematocrit [2]: (12.3 ± 2.3%*)
- Relative change in MCHC [2]: (0 ± 2%)
- Relative change in P-hgb [2]: (+15 ± 2%*)
- Relative change in RBC [2]: (17 ± 2%*)
- half-life (carboxypeptidase A): > 1200 min
- half-life (leucine aminopeptidase): > 6000 min

Molecule: CC(C)C[C@@H]1NC(=O)[C@@H]2CCCN2C(=O)CNC(=O)[C@H](Cc2ccccc2)NC(=O)[C@H](Cc2c[nH]cn2)NC(=O)[C@@H](NC(=O)[C@H](CO)NC(=O)[C@H](Cc2ccc(O)cc2)NC(=O)[C@@H](NC(=O)CNC(=O)CN)[C@@H](C)O)CSSC[C@@H](C(=O)N[C@@H](CCCCN)C(=O)N2CCC[C@H]2C(=O)N[C@@H](CCC(N)=O)C(=O)NCC(=O)NCC(=O)O)NC(=O)[C@H](C(C)C)NC(=O)[C@H](Cc2c[nH]c3ccccc23)NC(=O)[C@H]([C@@H](C)O)NC1=O [EMP-1-OH, H-GIy-Gly-Thr-Tyr-Ser-Cys-His-Phe-Gly-Pro-Leu-Thr-Trp -Val-Cys-Lys-Pro-Gln-Gly-GIy-OH, reference compound] (H-GGTYSCHFGPLTWVCKPQGG-OH; disulfide 6-15)
- Change in BW [2]: 3.4 ± 0.2 g
- Change in Hematocrit [2]: 0.3 ± 0.8%
- Change in MCHC [2]: 2.9 ± 1.5 mM
- Change in P-hgb [2]: +1.5 ± 0.5 mM
- Change in RBC [2]: 0.6 ± 0.2 10^12 cells/1
- Relative change in BW [2]: (16 ± 1%)
- Relative change in Hematocrit [2]: (0.8 ± 1.8%)
- Relative change in MCHC [2]: (4 ± 2%)
- Relative change in P-hgb [2]: (+8 ± 1%)
- Relative change in RBC [2]: (9 ± 3%)
- half-life (carboxypeptidase A): > 3000 min
- pseudo first-order rate constant for the degradation (leucine aminopeptidase): 0.0015 min⁻¹
- half-life (leucine aminopeptidase): 462 min

Molecule: YGGFLKEKEKE [Leu-Enkephalin-(Lys-Glu)3-OH]
- EC50 (vas deferens): 350 nM

Molecule: YGGFLKKKKKKKKKK [Leu-Enkephalin-(Lys)10-OH, H-Tyr-Gly-Gly-Phe-Leu-Lys10-OH]
- half-life (carboxypeptidase A): 2310 min
- pseudo first-order rate constant for the degradation (carboxypeptidase A): 0.0003 min⁻¹
- half-life (leucine aminopeptidase): > 6000 min
- EC50 (vas deferens): 2500 nM

B1: Parathyroid Hormone: native, human parathyroid hormone (protein, UniProt P01270 32-115, looked up)
Parathyroid hormone: SVSEIQLMHNLGKHLNSMERVEWLRKKLQDVHNFVALGAPLAPRDAGSQRPRKKEDNVLVESHEKSLGEADKADVNVLTKAKSQ
modifications: Parathyroid hormone
- Retraction assay % Retracted cells (osteoblast): 63.7%
- Retraction assay % Retracted cells (osteoblast; listed as PTH): ~64%

Source: patent publication US7414107B2, “Pharmacologically active peptide conjugates having a reduced tendency towards enzymatic hydrolysis” (priority 1998, dated 2008)
